Key:
[1] = molecular target: T1, glucocerebrosidase (Gcase) (Homo sapiens, UniProt P04062); assay: Glucocerebrosidase (Gcase) activation assay, 4-methylumbelliferyl-beta-D-glucopyranoside substrate, with saposin C; type: biochemical; conditions: 10 nM GCase, 100 nM saposin C, pH 4.7
T1 sequence (P04062 40-536): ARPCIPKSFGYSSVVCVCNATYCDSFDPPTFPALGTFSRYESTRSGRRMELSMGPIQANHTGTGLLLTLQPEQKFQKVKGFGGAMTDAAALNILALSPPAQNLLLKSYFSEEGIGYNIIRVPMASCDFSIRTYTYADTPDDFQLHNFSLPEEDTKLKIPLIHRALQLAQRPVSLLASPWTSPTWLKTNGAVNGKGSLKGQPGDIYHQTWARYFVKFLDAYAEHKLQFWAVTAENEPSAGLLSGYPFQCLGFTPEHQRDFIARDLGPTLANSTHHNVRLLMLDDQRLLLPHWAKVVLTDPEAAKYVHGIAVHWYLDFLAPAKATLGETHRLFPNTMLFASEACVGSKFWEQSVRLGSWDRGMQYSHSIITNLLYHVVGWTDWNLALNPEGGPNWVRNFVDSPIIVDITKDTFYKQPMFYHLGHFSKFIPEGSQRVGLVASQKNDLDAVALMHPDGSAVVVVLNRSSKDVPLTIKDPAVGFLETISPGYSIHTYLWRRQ
Experimental: The ability of exemplary compounds to activate glucocerebrosidase (Gcase) was measured.
A 484 μL aliquot of a 1.0 mg/mL solution of phosphatidylserine (PS) (Sigma P7769) in chloroform was evaporated under a stream of nitrogen for 1 hour. The lipid film was dissolved over 4 minutes of vigorous vortexing in 40 mL of 176 mM K2HPO4/50 mM citric acid (pH 4.7) containing 7.5 μL of triton X-100, resulting in a mixed micellar preparation with a composition of 0.32 mM triton and 0.37 mol % PS. 4-Methylumbelliferyl-beta-D-glucopyranoside (ACROS-337025000) was dissolved in the micellar solution to a final concentration of 2 mM for use as the reaction substrate.
Test compounds were diluted to the desired concentrations with dimethylsulfoxide (DMSO) from 10 mM stocks, and 0.41 μL of the DMSO compound mixture was added to 100 μL of micellar solution containing 10 nM GCase and 100 nM saposin C (Enzo ALX-201-262-C050). Pre-incubation was allowed to occur for 30 minutes at room temperature, after which the reaction was initiated by combining 25 μL of substrate solution with 25 μL of compound/GCase/saposin mixture. The reaction proceeded for 15 minutes at room temperature and was stopped by adding 150 μL of 1M glycine, pH 12.5. The endpoint of the reaction was monitored by measuring fluorescence intensity (excitation: 365 nm; emission: 440 nm) on a SpectraMax i3 instrument (Molecular Devices). Test compounds were screened at 1.0 and 0.1 μM final concentration, and subsequent 8-point dose response curves were obtained using 3-fold dilutions from a maximum final concentration of 5 μM.
For experiments in which the test compound was used at a concentration of 1.0 μM, the symbol “+” indicates less than 30% Gcase activation; the symbol “++” indicates Gcase activation in the range of 30% up to 60%; and the symbol “+++” indicates Gcase activation greater than 60%. For experiments in which the test compound was used at a concentration of 0.1 μM, the symbol “*” indicates less than 10% Gcase activation; the symbol “**” indicates Gcase activation in the range of 10% up to 20%; and the symbol “***” indicates greater than 20% Gcase activation.

[2] = Compound solubility in water; type: physicochemical

| Percent Gcase Activation 1 μM Test Compound [1] | Compound Solubility in Water [2] [µg/mL] | Structure (SMILES) | Percent Gcase Activation 0.1 μM Test Compound [1] |
| --- | --- | --- | --- |
| + (less than 30% Gcase activation) | <1.5 | Cc1cc(C)n2ncc(C(=O)Nc3ccc(-c4ccc[nH]4)cc3)c2n1 [III-57] | ** (Gcase activation in the range of 10% up to 20%) |
| +++ (Gcase activation greater than 60%) |  | Cc1cc(C)n2ncc(C(=O)Nc3ccc(Cl)c(C(C)Oc4cccnc4)c3)c2n1 (centres unmarked) [III-75] | * (less than 10% Gcase activation) |
| +++ (Gcase activation greater than 60%) |  | C#Cc1ccc(NC(=O)c2cnn3c(C)cc(NC)nc23)cc1 [III-77] | *** (greater than 20% Gcase activation) |
| + (less than 30% Gcase activation) |  | C#Cc1ccc(NC(=O)c2cnn3c(NC)cc(C)nc23)cc1 [III-78] | ** (Gcase activation in the range of 10% up to 20%) |
|  |  | Cc1cc(C)n2ncc(C(=O)NC3CCc4ccccc43)c2n1 (centres unmarked) [III-79] | ** (Gcase activation in the range of 10% up to 20%) |
| + (less than 30% Gcase activation) |  | Cc1cc(C)n2ncc(C(=O)Nc3ccc(C#CCN(C)C)cc3)c2n1 [IV-2] | * (less than 10% Gcase activation) |
| + (less than 30% Gcase activation) |  | Cc1cc(C)n2ncc(C(=O)Nc3ccc(N4CCCCC4)cc3)c2n1 [IV-3] | * (less than 10% Gcase activation) |
| +++ (Gcase activation greater than 60%) |  | Cc1cc(C)n2ncc(C(=O)Nc3ccc4c(c3)CCC4)c2n1 [IV-5] | ** (Gcase activation in the range of 10% up to 20%) |

| Structure (SMILES) | Percent Gcase Activation 1 μM Test Compound [1] | Compound Solubility in Water [2] [µg/mL] | Percent Gcase Activation 0.1 μM Test Compound [1] |
| --- | --- | --- | --- |
| Cc1cc(C)n2ncc(C(=O)Nc3ccc(-c4ccc[nH]4)cc3)c2n1 [III-76] | ++ (Gcase activation in the range of 30% up to 60%) | 0.01 | ** (Gcase activation in the range of 10% up to 20%) |
| C#Cc1ccc(NC(=O)c2cnn3c(C)cc(C)nc23)cc1 [IV-1] | ++ (Gcase activation in the range of 30% up to 60%) |  | ** (Gcase activation in the range of 10% up to 20%) |
| Cc1cc(C)n2ncc(C(=O)Nc3ccc4c(c3)OCO4)c2n1 [IV-4] | ++ (Gcase activation in the range of 30% up to 60%) |  | * (less than 10% Gcase activation) |
